From US9701664B2, “Fused 1,4-dihydrodioxin derivatives as inhibitors of heat shock transcription factor 1” (Cancer Research Technology Limited, priority 2013, dated 2017)

Tested on: HSP72 in SK-OV-3 cells
Experiment: Cell-based ELISA (Cellisa) assay, SK-OV-3 cells: inhibition of 17-AAG-induced HSP72
Conditions: Homo sapiens; SK-OV-3 cells (Examples 169-218)
Method: U2OS cells (5-8×10^4 cells/mL) or SK-OV-3 cells (5-8×10^4 cells/mL) were seeded into 96-well plates and incubated at 37° C. for 48 h. Compounds were then added at a range of concentrations and incubated for 1 h before addition of 17-AAG (250 nM). Cells were then incubated for 18 h. The medium was removed washed 2× with PBS and cells were then fixed with fixing solution (4% paraformaldehyde, 0.3% TritonX-100 in PBS) for 30 min at 4° C. The plates were then washed 2× with PBS before blocking with 5% milk for 30 min at 37° C. After washing the plates 4× with 0.1% Tween-20/deionised water, HSP72 antibody (SPA-810, Enzo Life) was added for 1.5 h at 37° C. Following 4× washes, the plates were incubated with europium-labelled anti-mouse antibody (0.6 ug/ml) in Delfia assay buffer (Perkin Elmer) for 1 h at 37° C. After washing the plates, Delfia enhancement solution was added, shaken for 10 min before reading in the Envision plate reader (Perkin-Elmer) with excitation at 340 nm and emission at 615 nm. The plates were washed again before protein determination using the bicinchoninic acid assay (BCA assay, Pierce Biotechnology). The europium counts were normalised for the amount of protein in each well. The 50% inhibitory concentration value of the compound was then calculated.

Structure (SMILES)	IC50 [nM]
O=C(Nc1ccc(F)c(NC(=O)c2ccc3nc(CN4CCC4)ccc3c2)c1)c1ccc2c(c1)OCCO2 [Example 171, 2-(azetidin-1-ylmethyl)-N-(5-(2,3-dihydrobenzo[b][1,4]dioxine-6-carboxamido)-2-fluorophenyl)quinoline-6-carboxamide]	450
O=C(Nc1ccc(F)c(NC(=O)c2ccc3nc(CN4CCCCC4)ccc3c2)c1)c1ccc2c(c1)OCCO2 [Example 172, N-(5-(2,3-dihydrobenzo[b][1,4]dioxine-6-carboxamido)-2-fluorophenyl)-2-(piperidin-1-ylmethyl)quinoline-6-carboxamide]	675
CN1CCN(Cc2ccc3cc(C(=O)Nc4cc(NC(=O)c5ccc6c(c5)OCCO6)ccc4F)ccc3n2)CC1 [Example 173, N-(5-(2,3-dihydrobenzo[b][1,4]dioxine-6-carboxamido)-2-fluorophenyl)-2-((4-methylpiperazin-1-yl)methyl)quinoline-6-carboxamide]	100
O=C(Nc1ccc(F)c(NC(=O)c2ccc3nc(CN4CCNCC4)ccc3c2)c1)c1ccc2c(c1)OCCO2 [Example 174, N-(5-(2,3-dihydrobenzo[b][1,4]dioxine-6-carboxamido)-2-fluorophenyl)-2-(piperazin-1-ylmethyl)quinoline-6-carboxamide]	78
C[C@H]1CCCN1Cc1ccc2cc(C(=O)Nc3cc(NC(=O)c4ccc5c(c4)OCCO5)ccc3F)ccc2n1 [Example 175, (S)—N-(5-(2,3-dihydrobenzo[b][1,4]dioxine-6-carboxamido)-2-fluorophenyl)-2-((2-methylpyrrolidin-1-yl)methyl)quinoline-6-carboxamide]	647
C[C@@H]1CCCN1Cc1ccc2cc(C(=O)Nc3cc(NC(=O)c4ccc5c(c4)OCCO5)ccc3F)ccc2n1 [Example 176, (R)—N-(5-(2,3-dihydrobenzo[b][1,4]dioxine-6-carboxamido)-2-fluorophenyl)-2-((2-methylpyrrolidin-1-yl)methyl)quinoline-6-carboxamide]	313
O=C(Nc1ccc(F)c(NC(=O)c2ccc3nc(CN4CCN(C5CC5)CC4)ccc3c2)c1)c1ccc2c(c1)OCCO2 [Example 178, 2-((4-cyclopropylpiperazin-1-yl)methyl)-N-(5-(2,3-dihydrobenzo[b][1,4]dioxine-6-carboxamido)-2-fluorophenyl)quinoline-6-carboxamide]	44
CCN1C[C@@H]2C[C@H]1CN2Cc1ccc2cc(C(=O)Nc3cc(NC(=O)c4ccc5c(c4)OCCO5)ccc3F)ccc2n1 [Example 180, N-(5-(2,3-dihydrobenzo[b][1,4]dioxine-6-carboxamido)-2-fluorophenyl)-2-(((1S,4S)-5-ethyl-2,5-diazabicyclo[2.2.1]heptan-2-yl)methyl)quinoline-6-carboxamide]	208
O=C(Nc1ccc(F)c(NC(=O)c2ccc3nc(CN4CC5(CCC5)C4)ccc3c2)c1)c1ccc2c(c1)OCCO2 [Example 181, 2-(2-azaspiro[3.3]heptan-2-ylmethyl)-N-(5-(2,3-dihydrobenzo[b][1,4]dioxine-6-carboxamido)-2-fluorophenyl)quinoline-6-carboxamide]	149
CC1CN(Cc2ccc3cc(C(=O)Nc4cc(NC(=O)c5ccc6c(c5)OCCO6)ccc4F)ccc3n2)C1 [Example 182, N-(5-(2,3-dihydrobenzo[b][1,4]dioxine-6-carboxamido)-2-fluorophenyl)-2-((3-methylazetidin-1-yl)methyl)quinoline-6-carboxamide]	232
CC1(C)CN(Cc2ccc3cc(C(=O)Nc4cc(NC(=O)c5ccc6c(c5)OCCO6)ccc4F)ccc3n2)C1 [Example 183, N-(5-(2,3-dihydrobenzo[b][1,4]dioxine-6-carboxamido)-2-fluorophenyl)-2-((3,3-dimethylazetidin-1-yl)methyl)quinoline-6-carboxamide]	131
CCN1CCCN(Cc2ccc3cc(C(=O)Nc4cc(NC(=O)c5ccc6c(c5)OCCO6)ccc4F)ccc3n2)CC1 [Example 184, N-(5-(2,3-dihydrobenzo[b][1,4]dioxine-6-carboxamido)-2-fluorophenyl)-2-((4-ethyl-1,4-diazepan-1-yl)methyl)quinoline-6-carboxamide]	60
CC(C)N1CCN(Cc2ccc3cc(C(=O)Nc4cc(NC(=O)c5ccc6c(c5)OCCO6)ccc4F)ccc3n2)CC1 [Example 185, N-(5-(2,3-dihydrobenzo[b][1,4]dioxine-6-carboxamido)-2-fluorophenyl)-2-((4-isopropylpiperazin-1-yl)methyl)quinoline-6-carboxamide]	137
O=C(Nc1ccc(F)c(NC(=O)c2ccc3nc(OCCCN4CCCCC4)ccc3c2)c1)c1ccc2c(c1)OCCO2 [Example 186, N-(5-(2,3-dihydrobenzo[b][1,4]dioxine-6-carboxamido)-2-fluorophenyl)-2-(3-(piperidin-1-yl)propoxy)quinoline-6-carboxamide]	13
O=C(Nc1ccc(F)c(NC(=O)c2ccc3nc(OCCCN4CCCC4)ccc3c2)c1)c1ccc2c(c1)OCCO2 [Example 187, N-(5-(2,3-dihydrobenzo[b][1,4]dioxine-6-carboxamido)-2-fluorophenyl)-2-(3-(pyrrolidin-1-yl)propoxy)quinoline-6-carboxamide]	10
O=C(Nc1ccc(F)c(NC(=O)c2ccc3nc(OCCN4CCCC4)ccc3c2)c1)c1ccc2c(c1)OCCO2 [Example 188, N-(5-(2,3-dihydrobenzo[b][1,4]dioxine-6-carboxamido)-2-fluorophenyl)-2-(2-(pyrrolidin-1-yl)ethoxy)quinoline-6-carboxamide]	57
O=C(Nc1ccc(Cl)c(NC(=O)c2ccc3nc(OCCCN4CCCCC4)ccc3c2)c1)c1ccc2c(c1)OCCO2 [Example 189, N-(2-chloro-5-(2,3-dihydrobenzo[b][1,4]dioxine-6-carboxamido)phenyl)-2-(3-(piperidin-1-yl)propoxy)quinoline-6-carboxamide]	27
CC(C)(C)N1CCN(Cc2ccc3cc(C(=O)Nc4cc(NC(=O)c5ccc6c(c5)OCCO6)ccc4Cl)ccc3n2)CC1 [Example 191, 2-((4-(tert-butyl)piperazin-1-yl)methyl)-N-(2-chloro-5-(2,3 dihydrobenzo[b][1,4]dioxine-6-carboxamido)phenyl)quinoline-6-carboxamide]	134
O=C(Nc1ccc(Cl)c(NC(=O)c2ccc3nc(CN4CCNCC4)ccc3c2)c1)c1ccc2c(c1)OCCO2 [Example 192, N-(2-chloro-5-(2,3-dihydrobenzo[b][1,4]dioxine-6-carboxamido)phenyl)-2-(piperazin-1-ylmethyl)quinoline-6-carboxamide]	128
O=C(Nc1ccc(Cl)c(NC(=O)c2ccc3nc(CN4CCN(C5CC5)CC4)ccc3c2)c1)c1ccc2c(c1)OCCO2 [Example 194, N-(2-chloro-5-(2,3-dihydrobenzo[b][1,4]dioxine-6-carboxamido)phenyl)-2-((4-cyclopropylpiperazin-1-yl)methyl)quinoline-6-carboxamide]	213
CN1CCN(Cc2ccc3cc(C(=O)Nc4cc(NC(=O)c5ccc6c(c5)OCCO6)ccc4Cl)ccc3n2)CC1 [Example 195, N-(2-chloro-5-(2,3-dihydrobenzo[b][1,4]dioxine-6-carboxamido)phenyl)-2-((4-methylpiperazin-1-yl)methyl)quinoline-6-carboxamide]	66
CCN1CCN(Cc2ccc3cc(C(=O)Nc4cc(NC(=O)c5ccc6c(c5)OCCO6)ccc4Cl)ccc3n2)CC1 [Example 196, N-(2-chloro-5-(2,3-dihydrobenzo[b][1,4]dioxine-6-carboxamido)phenyl)-2-((4-ethylpiperazin-1-yl)methyl)quinoline-6-carboxamide]	48
CC(C)N1CCN(Cc2ccc3cc(C(=O)Nc4cc(NC(=O)c5ccc6c(c5)OCCO6)ccc4Cl)ccc3n2)CC1 [Example 197, N-(2-chloro-5-(2,3-dihydrobenzo[b][1,4]dioxine-6-carboxamido)phenyl)-2-((4-isopropylpiperazin-1-yl)methyl)quinoline-6-carboxamide]	43
O=C(Nc1ccc(Cl)c(NC(=O)c2ccc3nc(CN4CCCC4)ccc3c2)c1)c1ccc2c(c1)OCCO2 [Example 198, N-(2-chloro-5-(2,3-dihydrobenzo[b][1,4]dioxine-6-carboxamido)phenyl)-2-(pyrrolidin-1-ylmethyl)quinoline-6-carboxamide]	173
O=C(Nc1ccc(Cl)c(NC(=O)c2ccc3nc(CN4CCC4)ccc3c2)c1)c1ccc2c(c1)OCCO2 [Example 199, 2-(azetidin-1-ylmethyl)-N-(2-chloro-5-(2,3-dihydrobenzo[b][1,4]dioxine-6-carboxamido)phenyl)quinoline-6-carboxamide]	85
CC1CN(Cc2ccc3cc(C(=O)Nc4cc(NC(=O)c5ccc6c(c5)OCCO6)ccc4Cl)ccc3n2)C1 [Example 200, N-(2-chloro-5-(2,3-dihydrobenzo[b][1,4]dioxine-6-carboxamido)phenyl)-2-((3-methylazetidin-1-yl)methyl)quinoline-6-carboxamide]	84
CC1(C)CN(Cc2ccc3cc(C(=O)Nc4cc(NC(=O)c5ccc6c(c5)OCCO6)ccc4Cl)ccc3n2)C1 [Example 201, N-(2-chloro-5-(2,3-dihydrobenzo[b][1,4]dioxine-6-carboxamido)phenyl)-2-((3,3-dimethylazetidin-1-yl)methyl)quinoline-6-carboxamide]	83
